{"source": "the CheMixHub viscosity set", "key": {"[1]": {"test": "xn = mol fraction of the nth substance listed", "details": "101 kPa"}}, "note": "Several values for one entry are separate records, joined by “and”; a condition that tells them apart may be missing. Equal entries are not always repeated. ± gives the uncertainty stated by the source."}
{"smiles": "CC[NH3+].O=[N+]([O-])[O-]", "values": [{"measurement": "viscosity", "setting": "293.15 K, 100 kPa", "value": "40.61 ± 0.9", "unit": "mPa·s"}, {"measurement": "viscosity", "setting": "293.15 K, 101 kPa", "value": "43.5 mPa·s and 44.9 ± 1.2 mPa·s"}, {"measurement": "viscosity", "setting": "298 K, 101 kPa", "value": "37.51 ± 1.2", "unit": "mPa·s"}, {"measurement": "viscosity", "setting": "298.15 K, 100 kPa", "value": "34.49 ± 0.77", "unit": "mPa·s"}, {"measurement": "viscosity", "setting": "298.15 K, 101 kPa", "value": "37.5 ± 1.6 mPa·s and 36.5 mPa·s"}, {"measurement": "viscosity", "setting": "303.15 K, 100 kPa", "value": "29.65 ± 0.66", "unit": "mPa·s"}, {"measurement": "viscosity", "setting": "303.15 K, 101 kPa", "value": 31, "unit": "mPa·s"}, {"measurement": "viscosity", "setting": "308.15 K, 100 kPa", "value": "25.76 ± 0.58", "unit": "mPa·s"}, {"measurement": "viscosity", "setting": "308.15 K, 101 kPa", "value": 26.5, "unit": "mPa·s"}, {"measurement": "viscosity", "setting": "313.15 K, 100 kPa", "value": "22.67 ± 0.51", "unit": "mPa·s"}, {"measurement": "viscosity", "setting": "313.15 K, 101 kPa", "value": 22.8, "unit": "mPa·s"}, {"measurement": "viscosity", "setting": "318.15 K, 100 kPa", "value": "20.12 ± 0.46", "unit": "mPa·s"}, {"measurement": "viscosity", "setting": "318.15 K, 101 kPa", "value": 20, "unit": "mPa·s"}, {"measurement": "viscosity", "setting": "323.15 K, 101 kPa", "value": 17.6, "unit": "mPa·s"}]}
{"smiles": "CN1CCNCC1", "values": [{"measurement": "viscosity", "setting": "298.15 K, 101 kPa", "value": "1.87 ± 0.04", "unit": "mPa·s"}, {"measurement": "viscosity", "setting": "313.15 K, 101 kPa", "value": "1.302 ± 0.028", "unit": "mPa·s"}]}
{"smiles": "NCc1ccccc1", "values": [{"measurement": "viscosity", "setting": "303.15 K, 100 kPa", "value": "1.497 ± 0.035", "unit": "mPa·s"}, {"measurement": "viscosity", "setting": "303.15 K, 101 kPa", "value": "1.415 ± 0.03", "unit": "mPa·s"}, {"measurement": "viscosity", "setting": "313.15 K, 100 kPa", "value": "1.262 ± 0.03", "unit": "mPa·s"}, {"measurement": "viscosity", "setting": "323.15 K, 100 kPa", "value": "1.071 ± 0.025", "unit": "mPa·s"}]}
{"smiles": "O=CN1CCOCC1", "values": [{"measurement": "viscosity", "setting": "298.15 K, 101 kPa", "value": "7.656 ± 0.15", "unit": "mPa·s"}, {"measurement": "viscosity", "setting": "298.15 K, 101.3 kPa", "value": "7.613 ± 0.052", "unit": "mPa·s"}, {"measurement": "viscosity", "setting": "303.15 K, 101 kPa", "value": "6.626 ± 0.18 mPa·s and 6.598 ± 0.13 mPa·s"}, {"measurement": "viscosity", "setting": "308.15 K, 101 kPa", "value": "5.731 ± 0.16", "unit": "mPa·s"}, {"measurement": "viscosity", "setting": "313.15 K, 101 kPa", "value": "5.141 ± 0.14 mPa·s and 5.068 ± 0.11 mPa·s"}, {"measurement": "viscosity", "setting": "323.15 K, 101 kPa", "value": "4.036 ± 0.089", "unit": "mPa·s"}]}
{"smiles": "OCCO", "values": [{"measurement": "viscosity", "setting": "293.15 K, 101.3 kPa", "value": "21.4 ± 0.6 mPa·s and 21.62 ± 0.88 mPa·s"}, {"measurement": "viscosity", "setting": "293.15 K, 101.32 kPa", "value": "19.2 ± 1.3", "unit": "mPa·s"}, {"measurement": "viscosity", "setting": "297.85 K, 101 kPa", "value": "17.7 ± 0.2", "unit": "mPa·s"}, {"measurement": "viscosity", "setting": "298.15 K, 100 kPa", "value": "17.7 ± 3.5 mPa·s and 17.87 ± 0.093 mPa·s"}, {"measurement": "viscosity", "setting": "298.15 K, 101.3 kPa", "value": "16.1 ± 2", "unit": "mPa·s"}, {"measurement": "viscosity", "setting": "298.15 K, 101.33 kPa", "value": "15.31 ± 1.6", "unit": "mPa·s"}, {"measurement": "viscosity", "setting": "302.85 K, 101 kPa", "value": "14.4 ± 0.16", "unit": "mPa·s"}, {"measurement": "viscosity", "setting": "303 K, 101 kPa", "value": "15 ± 0.5", "unit": "mPa·s"}, {"measurement": "viscosity", "setting": "303.15 K, 101.33 kPa", "value": "12.24 ± 1.3", "unit": "mPa·s"}, {"measurement": "viscosity", "setting": "307.85 K, 101 kPa", "value": "11.92 ± 0.13", "unit": "mPa·s"}, {"measurement": "viscosity", "setting": "308.15 K, 100 kPa", "value": "11.07 ± 0.074", "unit": "mPa·s"}, {"measurement": "viscosity", "setting": "308.15 K, 101 kPa", "value": "10.97 ± 0.81 mPa·s and 12 ± 0.32 mPa·s and 11.66 ± 0.23 mPa·s"}, {"measurement": "viscosity", "setting": "308.15 K, 101.33 kPa", "value": "9.945 ± 1.1", "unit": "mPa·s"}, {"measurement": "viscosity", "setting": "312.95 K, 101 kPa", "value": "9.95 ± 0.11", "unit": "mPa·s"}, {"measurement": "viscosity", "setting": "313.15 K, 101.3 kPa", "value": "9.53 ± 0.39", "unit": "mPa·s"}, {"measurement": "viscosity", "setting": "313.15 K, 101.32 kPa", "value": "8.45 ± 0.58", "unit": "mPa·s"}, {"measurement": "viscosity", "setting": "313.15 K, 101.33 kPa", "value": "9.17 ± 0.29 mPa·s and 9.535 ± 1 mPa·s"}, {"measurement": "viscosity", "setting": "317.75 K, 101 kPa", "value": "8.44 ± 0.09", "unit": "mPa·s"}, {"measurement": "viscosity", "setting": "318.15 K, 100 kPa", "value": "9.59 ± 0.09 mPa·s and 7.888 ± 3 mPa·s and 8.126 ± 0.06 mPa·s"}, {"measurement": "viscosity", "setting": "318.15 K, 101.3 kPa", "value": "8.08 ± 0.33", "unit": "mPa·s"}, {"measurement": "viscosity", "setting": "318.15 K, 101.33 kPa", "value": "7.68 ± 0.25", "unit": "mPa·s"}, {"measurement": "viscosity", "setting": "322.75 K, 101 kPa", "value": "7.19 ± 0.07", "unit": "mPa·s"}, {"measurement": "viscosity", "setting": "323.15 K, 101.3 kPa", "value": "6.96 ± 0.18 mPa·s and 6.91 ± 0.28 mPa·s"}]}
{"smiles": "S=C=S", "values": [{"measurement": "viscosity", "setting": "293.15 K, 101 kPa", "value": "0.36 ± 0.01 mPa·s and 0.365 ± 0.004 mPa·s"}, {"measurement": "viscosity", "setting": "298.15 K, 101.33 kPa", "value": "0.4077 ± 0.017", "unit": "mPa·s"}]}
{"smiles": "CC(=O)Nc1ccc(O)cc1", "note": "+ O", "values": [{"measurement": "viscosity", "setting": "[1]; 298.15 K, x1 = 0.00011", "value": "0.8928 ± 0.022 mPa·s and 0.8928 ± 0.0064 mPa·s"}, {"measurement": "viscosity", "setting": "[1]; 298.15 K, x1 = 0.000241", "value": "0.8964 ± 0.022 mPa·s and 0.8964 ± 0.0064 mPa·s"}, {"measurement": "viscosity", "setting": "[1]; 298.15 K, x1 = 0.000483", "value": "0.9001 ± 0.022 mPa·s and 0.9001 ± 0.0065 mPa·s"}, {"measurement": "viscosity", "setting": "[1]; 298.15 K, x1 = 0.000727", "value": "0.9061 ± 0.022 mPa·s and 0.9061 ± 0.0065 mPa·s"}, {"measurement": "viscosity", "setting": "[1]; 298.15 K, x1 = 0.000975", "value": "0.9121 ± 0.022 mPa·s and 0.9121 ± 0.0066 mPa·s"}, {"measurement": "viscosity", "setting": "[1]; 298.15 K, x1 = 0.00122", "value": "0.9178 ± 0.022 mPa·s and 0.9178 ± 0.0066 mPa·s"}, {"measurement": "viscosity", "setting": "[1]; 308.15 K, x1 = 0.00011", "value": "0.7208 ± 0.021 mPa·s and 0.7208 ± 0.0053 mPa·s"}, {"measurement": "viscosity", "setting": "[1]; 308.15 K, x1 = 0.000241", "value": "0.7243 ± 0.021 mPa·s and 0.7243 ± 0.0053 mPa·s"}, {"measurement": "viscosity", "setting": "[1]; 308.15 K, x1 = 0.000483", "value": "0.7281 ± 0.021 mPa·s and 0.7279 ± 0.0054 mPa·s"}, {"measurement": "viscosity", "setting": "[1]; 308.15 K, x1 = 0.000727", "value": "0.7329 ± 0.021 mPa·s and 0.7329 ± 0.0054 mPa·s"}, {"measurement": "viscosity", "setting": "[1]; 308.15 K, x1 = 0.000975", "value": "0.7378 ± 0.021 mPa·s and 0.7378 ± 0.0054 mPa·s"}, {"measurement": "viscosity", "setting": "[1]; 308.15 K, x1 = 0.00122", "value": "0.7424 ± 0.021 mPa·s and 0.7424 ± 0.0059 mPa·s"}, {"measurement": "viscosity", "setting": "[1]; 318.15 K, x1 = 0.00011", "value": "0.598 ± 0.021 mPa·s and 0.598 ± 0.0045 mPa·s"}, {"measurement": "viscosity", "setting": "[1]; 318.15 K, x1 = 0.000241", "value": "0.6004 ± 0.021 mPa·s and 0.6004 ± 0.0045 mPa·s"}, {"measurement": "viscosity", "setting": "[1]; 318.15 K, x1 = 0.000483", "value": "0.6053 ± 0.021 mPa·s and 0.6053 ± 0.0046 mPa·s"}, {"measurement": "viscosity", "setting": "[1]; 318.15 K, x1 = 0.000727", "value": "0.6102 ± 0.021 mPa·s and 0.6102 ± 0.0046 mPa·s"}, {"measurement": "viscosity", "setting": "[1]; 318.15 K, x1 = 0.000975", "value": "0.6151 ± 0.021 mPa·s and 0.6151 ± 0.0047 mPa·s"}, {"measurement": "viscosity", "setting": "[1]; 318.15 K, x1 = 0.00122", "value": "0.6197 ± 0.021 mPa·s and 0.6197 ± 0.0047 mPa·s"}]}
